# From publication PMC10208580 (Science Advances, 2023)
# Like-named read-outs stand apart in the source and are kept apart here. Bridge positions count the residues as written; N and C are the ends. Square brackets hold non-standard residues; d marks the D form. Ends that are not written are not given here. Peptide text beside a SMILES is read from it. pT = C[C@@H](OP(=O)(O)O)[C@H](N)C(=O)O
# Experiments:
# RyR1 [1] = target: T1, RyR1 (Oryctolagus cuniculus, UniProt P11716); assay: [3H]ryanodine binding to skeletal muscle heavy SR vesicles; assay type: biochemical, rabbit; settings: for EC50: SEM
# T1 construct: from tissue; host or cells: rabbit skeletal muscle heavy SR vesicles
# T1 sequence (P11716 whole entry): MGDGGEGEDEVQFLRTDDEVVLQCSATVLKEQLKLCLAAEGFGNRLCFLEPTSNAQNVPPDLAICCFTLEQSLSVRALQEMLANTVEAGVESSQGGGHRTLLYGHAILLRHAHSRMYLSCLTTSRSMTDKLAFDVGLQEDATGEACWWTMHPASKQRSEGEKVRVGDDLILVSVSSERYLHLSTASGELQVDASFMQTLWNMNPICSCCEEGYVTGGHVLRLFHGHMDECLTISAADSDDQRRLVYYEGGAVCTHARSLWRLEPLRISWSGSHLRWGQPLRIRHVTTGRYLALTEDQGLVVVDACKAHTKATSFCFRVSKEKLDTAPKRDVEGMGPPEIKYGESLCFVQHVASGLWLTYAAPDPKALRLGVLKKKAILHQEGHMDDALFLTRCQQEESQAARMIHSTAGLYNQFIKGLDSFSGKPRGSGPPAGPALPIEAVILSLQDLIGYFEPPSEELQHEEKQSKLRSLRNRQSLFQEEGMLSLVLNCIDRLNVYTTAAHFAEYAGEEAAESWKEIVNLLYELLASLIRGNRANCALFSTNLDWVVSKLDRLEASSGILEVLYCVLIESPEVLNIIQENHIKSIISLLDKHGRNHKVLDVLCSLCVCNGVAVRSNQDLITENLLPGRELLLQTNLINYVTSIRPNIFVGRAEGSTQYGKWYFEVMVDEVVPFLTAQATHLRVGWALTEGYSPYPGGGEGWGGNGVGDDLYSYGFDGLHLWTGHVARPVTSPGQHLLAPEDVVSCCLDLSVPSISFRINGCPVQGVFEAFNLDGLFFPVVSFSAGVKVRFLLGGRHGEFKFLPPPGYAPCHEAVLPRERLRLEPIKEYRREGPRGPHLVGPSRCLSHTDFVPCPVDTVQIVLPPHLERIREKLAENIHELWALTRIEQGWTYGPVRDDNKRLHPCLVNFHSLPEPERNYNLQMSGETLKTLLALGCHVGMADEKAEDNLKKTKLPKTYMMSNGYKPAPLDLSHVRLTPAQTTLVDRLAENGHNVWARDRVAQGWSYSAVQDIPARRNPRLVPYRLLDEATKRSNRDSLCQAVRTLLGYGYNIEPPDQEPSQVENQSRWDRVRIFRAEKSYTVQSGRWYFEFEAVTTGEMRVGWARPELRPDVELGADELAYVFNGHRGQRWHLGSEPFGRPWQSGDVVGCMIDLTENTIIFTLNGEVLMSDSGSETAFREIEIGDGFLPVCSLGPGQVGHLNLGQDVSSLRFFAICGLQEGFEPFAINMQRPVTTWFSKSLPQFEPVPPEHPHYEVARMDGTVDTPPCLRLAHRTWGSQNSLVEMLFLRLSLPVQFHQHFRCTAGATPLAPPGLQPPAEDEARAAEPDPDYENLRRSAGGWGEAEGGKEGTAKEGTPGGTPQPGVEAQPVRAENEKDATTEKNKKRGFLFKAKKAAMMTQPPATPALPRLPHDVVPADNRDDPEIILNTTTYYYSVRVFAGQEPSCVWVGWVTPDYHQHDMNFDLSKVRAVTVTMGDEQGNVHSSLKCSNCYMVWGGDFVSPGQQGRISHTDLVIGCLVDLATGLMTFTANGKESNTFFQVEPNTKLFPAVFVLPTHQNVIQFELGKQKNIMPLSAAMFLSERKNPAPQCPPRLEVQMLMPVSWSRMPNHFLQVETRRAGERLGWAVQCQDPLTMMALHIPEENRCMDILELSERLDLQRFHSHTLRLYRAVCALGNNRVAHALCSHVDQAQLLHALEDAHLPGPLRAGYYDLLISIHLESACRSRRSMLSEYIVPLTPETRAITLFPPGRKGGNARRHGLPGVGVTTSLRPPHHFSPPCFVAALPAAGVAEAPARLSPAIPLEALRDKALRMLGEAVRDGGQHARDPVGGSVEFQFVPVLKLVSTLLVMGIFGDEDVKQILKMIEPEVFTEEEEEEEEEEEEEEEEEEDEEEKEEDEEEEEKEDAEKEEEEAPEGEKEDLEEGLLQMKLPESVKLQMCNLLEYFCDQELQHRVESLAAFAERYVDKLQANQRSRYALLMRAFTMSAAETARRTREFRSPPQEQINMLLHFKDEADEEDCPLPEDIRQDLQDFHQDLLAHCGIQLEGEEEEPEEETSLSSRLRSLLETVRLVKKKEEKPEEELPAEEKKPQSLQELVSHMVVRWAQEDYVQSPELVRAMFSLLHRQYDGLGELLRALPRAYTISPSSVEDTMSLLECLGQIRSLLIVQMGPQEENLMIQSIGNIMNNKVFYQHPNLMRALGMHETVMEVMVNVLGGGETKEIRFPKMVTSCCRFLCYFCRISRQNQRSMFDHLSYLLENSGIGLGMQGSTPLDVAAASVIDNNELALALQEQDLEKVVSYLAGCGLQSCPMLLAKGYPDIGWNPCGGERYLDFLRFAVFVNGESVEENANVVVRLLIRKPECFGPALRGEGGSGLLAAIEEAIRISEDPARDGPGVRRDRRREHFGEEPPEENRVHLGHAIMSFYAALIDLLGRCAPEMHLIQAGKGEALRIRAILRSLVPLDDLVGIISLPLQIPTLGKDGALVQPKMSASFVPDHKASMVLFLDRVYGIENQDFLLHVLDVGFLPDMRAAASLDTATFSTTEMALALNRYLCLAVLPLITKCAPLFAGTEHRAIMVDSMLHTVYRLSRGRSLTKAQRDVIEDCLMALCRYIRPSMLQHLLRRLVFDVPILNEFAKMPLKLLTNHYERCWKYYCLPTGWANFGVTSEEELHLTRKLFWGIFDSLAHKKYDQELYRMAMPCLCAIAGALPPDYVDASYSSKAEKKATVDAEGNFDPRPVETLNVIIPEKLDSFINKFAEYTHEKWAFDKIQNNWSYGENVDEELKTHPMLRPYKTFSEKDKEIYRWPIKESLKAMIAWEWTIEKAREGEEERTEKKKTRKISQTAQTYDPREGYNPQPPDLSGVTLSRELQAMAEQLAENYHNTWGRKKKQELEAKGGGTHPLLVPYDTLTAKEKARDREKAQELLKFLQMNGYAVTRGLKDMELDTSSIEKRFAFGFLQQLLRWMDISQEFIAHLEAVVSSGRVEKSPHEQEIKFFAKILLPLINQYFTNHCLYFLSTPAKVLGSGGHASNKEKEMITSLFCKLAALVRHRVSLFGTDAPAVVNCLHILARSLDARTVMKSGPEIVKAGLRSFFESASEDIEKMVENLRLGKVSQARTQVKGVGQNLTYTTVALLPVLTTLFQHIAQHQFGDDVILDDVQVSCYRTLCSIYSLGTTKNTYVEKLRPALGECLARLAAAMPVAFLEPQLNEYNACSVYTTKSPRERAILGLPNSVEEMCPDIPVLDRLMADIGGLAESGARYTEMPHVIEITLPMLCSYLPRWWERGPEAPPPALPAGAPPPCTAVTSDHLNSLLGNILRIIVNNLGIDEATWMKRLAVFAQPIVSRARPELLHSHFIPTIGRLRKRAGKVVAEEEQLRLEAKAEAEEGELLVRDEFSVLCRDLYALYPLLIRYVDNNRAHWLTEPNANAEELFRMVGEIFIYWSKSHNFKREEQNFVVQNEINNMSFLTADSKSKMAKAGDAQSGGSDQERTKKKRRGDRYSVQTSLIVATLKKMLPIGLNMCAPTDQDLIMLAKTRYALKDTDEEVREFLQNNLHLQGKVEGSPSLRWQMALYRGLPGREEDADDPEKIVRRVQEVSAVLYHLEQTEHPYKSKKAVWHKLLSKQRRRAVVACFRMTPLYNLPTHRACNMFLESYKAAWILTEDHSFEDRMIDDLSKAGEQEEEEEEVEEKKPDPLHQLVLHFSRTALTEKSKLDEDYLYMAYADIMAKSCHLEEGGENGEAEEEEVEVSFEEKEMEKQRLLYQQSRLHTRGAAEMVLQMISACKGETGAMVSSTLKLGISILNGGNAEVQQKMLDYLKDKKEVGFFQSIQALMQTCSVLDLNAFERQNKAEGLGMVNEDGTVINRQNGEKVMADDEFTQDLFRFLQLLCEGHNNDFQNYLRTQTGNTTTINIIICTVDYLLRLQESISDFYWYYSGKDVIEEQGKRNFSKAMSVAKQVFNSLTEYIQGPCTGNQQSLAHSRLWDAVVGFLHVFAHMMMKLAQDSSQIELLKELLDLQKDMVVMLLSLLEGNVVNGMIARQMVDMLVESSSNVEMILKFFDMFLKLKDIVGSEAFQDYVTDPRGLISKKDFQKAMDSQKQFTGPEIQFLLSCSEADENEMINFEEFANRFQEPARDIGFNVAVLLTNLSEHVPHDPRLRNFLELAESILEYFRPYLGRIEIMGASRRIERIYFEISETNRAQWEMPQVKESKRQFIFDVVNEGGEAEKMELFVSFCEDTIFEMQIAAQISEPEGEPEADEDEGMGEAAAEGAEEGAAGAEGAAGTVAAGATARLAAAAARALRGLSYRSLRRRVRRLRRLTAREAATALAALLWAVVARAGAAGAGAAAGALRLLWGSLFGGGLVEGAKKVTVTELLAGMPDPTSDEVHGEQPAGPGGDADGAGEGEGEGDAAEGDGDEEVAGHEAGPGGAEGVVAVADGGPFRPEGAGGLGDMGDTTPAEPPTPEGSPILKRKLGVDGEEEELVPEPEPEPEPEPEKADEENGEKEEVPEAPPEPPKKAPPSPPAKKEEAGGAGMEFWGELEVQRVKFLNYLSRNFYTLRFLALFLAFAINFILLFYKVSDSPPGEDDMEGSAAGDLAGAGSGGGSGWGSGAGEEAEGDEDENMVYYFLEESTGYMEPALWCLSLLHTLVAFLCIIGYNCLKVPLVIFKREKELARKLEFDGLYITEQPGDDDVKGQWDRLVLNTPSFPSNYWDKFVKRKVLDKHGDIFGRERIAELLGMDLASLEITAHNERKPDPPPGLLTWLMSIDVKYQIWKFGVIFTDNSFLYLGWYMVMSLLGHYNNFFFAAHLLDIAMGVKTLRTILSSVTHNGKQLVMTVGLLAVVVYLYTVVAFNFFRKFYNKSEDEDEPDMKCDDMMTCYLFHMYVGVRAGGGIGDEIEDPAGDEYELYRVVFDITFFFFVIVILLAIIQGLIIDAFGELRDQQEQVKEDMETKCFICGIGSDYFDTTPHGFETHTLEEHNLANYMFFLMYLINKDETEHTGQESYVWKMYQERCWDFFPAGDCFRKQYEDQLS
# [2] = target: rabbit RyR1 (Ryanodine Receptor 1), purified from skeletal muscle (rabbit) (UniProt P11716)
# rabbit RyR1 (Ryanodine Receptor 1), purified from skeletal muscle (rabbit), sequence (P11716 whole entry): as above
# RyR1 [3] = settings: cited from earlier work
# From the text: The detailed binding interface between IpCa and RyR1 is shown in Fig. 3, and putative interacting pairs of residues are shown in table S1. IpCa enters the vestibule of the channel and binds deep at the cytosolic side, adjacent to the transmembrane region. All RyR1 residues involved in binding are located in the cytosolic extensions of the inner S6 helices (S6ext) that line the permeation pathway. Equivalent residues of all four RyR1 subunits make different interactions with IpCa. The most extensive interface includes the side of IpCa that contains the 22–30 loop. It mostly consists of various ... || The structure is also in agreement with previous mutagenesis studies of calcins. For example, Arg^23 is conserved in all calcins and forms a likely salt bridge with RyR1 residue Asp^4945. […] Another study found a general importance of multiple charged IpCa residues to form a subconductance state in RyR1, with the largest effects found for substitutions in the 22–30 loop ([20]), which forms the most extensive interactions with RyR1. Thus, the structure appears to be in general agreement with known potencies of natura ... || A third tunnel with a smaller radius (~1.8 Å) can be found at the lateral opening near Arg^24 (“exit 3,” fig. S10D). The narrower radius, along with the presence of three positively charged residues at the constriction point, likely provides a sizeable energetic barrier. Thus, on the basis of minimum radius and electrostatic surface potential, exit 1 may form the most likely exit pathway for Ca^2+ ions.
# rabbit RyR1 = assay: Cryo-EM of RyR1 incubated with calcin variant (density for peptide); assay type: binding; settings: activating conditions (Ca2+, ATP, caffeine, CaM1234), incubation up to an hour
# Procedure: For activating conditions (datasets 3 to 5), RyR1 samples were diluted to contain 30 μM buffered free Ca^2+, 80 μM CaM1234, 5 mM caffeine, and 8 mM (dataset 3) or 5 mM (datasets 4 and 5) ATP. Purified IpCa (powder) was first diluted to 1 mM in buffer S5 without EGTA or Ca^2+ and then added to the RyR1 samples to a final concentration of 30 to 80 μM. Samples were incubated in the presence of IpCa (including pT26 and T26E) up to an hour before plunging. RyR1 particles from each condition were assessed by negative-stain EM. Four microliters of purified RyR1 diluted to 0.01 to 0.05 mg/ml was applied to glow-discharged 400-mesh copper grids (Electron Microscopy Sciences) and stained with 0.7% (w/v %) uranyl formate. Negatively stained EM grids were imaged on a Tecnai G2 Spirit microscope (Thermo Fisher Scientific) operated at 120 kV or a Talos with a Ceta camera operated at 120 kV.
# For cryo-EM, RyR1 samples with a final concentration of 10 to 12 mg/ml were used. The samples were applied to holey carbon R2/2 grids (Quantifoil). Grids were blotted for 3 s with −5 to −15 blot force applied and subsequently flash-frozen with liquid ethane using a Vitrobot IV (Thermo Fisher Scientific). Grids were transferred to a Titan Krios G2 electron microscope (Thermo Fisher Scientific) operating at 300 kV. […]
# [4] = target: T2, mouse cAMP PKA catalytic subunit (PKAc, α isoform) (Mus musculus, UniProt P05132); assay: ADP-Glo kinase assay, Michaelis-Menten kinetics of peptide phosphorylation; assay type: biochemical; settings: peptide as PKA substrate, 25 nM PKAc, 1 mM ATP, 6 repeats
# T2 construct: His tag (inferred from HisTrap purification) (cleaved yes); made in house; host or cells: E. coli Rosetta (DE3) pLysI
# Procedure: (§1) PKAc was concentrated to 500 μM, aliquoted, and stored in kinase buffer containing 20 mM Hepes (pH 7.4), 150 mM KCl, 4 mM TCEP, 5 mM MgCl2, and 30% glycerol and stored at −70°C in 0.5-ml tubes prior for use in kinase assays. All ADP-Glo Max reagents (Promega) were thawed and brought to room temperature before use. Each 0.5-ml PKAc tube was thawed and diluted to 0.5 μM in the kinase buffer without the glycerol. Kemptide and IpCa substrates were diluted to 1 mM in kinase buffer (without glycerol) from 10 mM stock made from lyophilized powder. Using a twofold dilution series, substrate concentrations ranged from 512 to 0.5 μM. In addition, a reaction with no substrate was added for a total of 12 reactions using a 20-μl reaction volume. One microliter of ATP (from the ADP-Glo Max kit) was used to reach a final concentration of 1 mM ATP in the reaction volume. Reaction was started by adding 1 μl of PKAc to reach 25 nM for each reaction. All reactions were carried out at room temperature for 30 to 60 min. Duplicates of each reaction tube were plated on a Corning 384-well solid white polystyrene microplates (Thermo Fisher Scientific) and used for downstream detection and luminescence readings. The average values of each duplicate reaction were used as a single replicate. Thus, for the total of six replicates, 12 reactions were used. Readings are based on relative luminescence units, which are converted into moles of ATP hydrolyzed using an adenosine diphosphate–ATP standard curve according to manufacturer’s protocol (Promega). Each standard curve was run in duplicate where the average was used to calculate moles of ATP hydrolyzed in each kinase reaction. Luminescence readings were recorded from the microplate wells using a PerkinElmer Victor X4.
# (§2) A nonlinear regression Michaelis-Menten kinetics fitting function was used in GraphPad Prism 8.0 to calculate KM,Vmax, and Kcat values for the PKA-IpCa kinase assays. SEMs are reported for each data point as calculated in Prism. Figures and graphs were generated using PyMOL, ChimeraX, and Prism 8.0 unless otherwise noted. [^3H] Ryanodine binding data were fitted using nonlinear regression analysis in Origin 2018b software (Origin Lab). Hill’s equation was used to determine Bmax (maximum specific binding) and Kd ([…]). Statistical significance was determined at P < 0.05.
# [5] = tested on: CC(C)C[C@@H]1NC(=O)[C@H](Cc2c[nH]cn2)NC(=O)[C@@H]2CCCN2C(=O)[C@H](CC(C)C)NC(=O)[C@@H](NC(=O)[C@H](CC(=O)O)NC(=O)CN)CSSC[C@@H]2NC(=O)[C@@H]3CSSC[C@@H](C(=O)N[C@@H](CCCNC(=N)N)C(=O)O)NC(=O)[C@H](CCCNC(=N)N)NC(=O)[C@H](CCCCN)NC(=O)[C@H](CCC(=O)O)NC(=O)[C@H](C)NC(=O)[C@H](CC(N)=O)NC(=O)[C@H]([C@@H](C)O)NC(=O)CNC(=O)[C@H](CCCNC(=N)N)NC(=O)[C@H](CCCNC(=N)N)NC(=O)[C@H](CCCCN)NC(=O)[C@H](CSSC[C@H](NC(=O)[C@H](CCCNC(=N)N)NC(=O)[C@H](CCCCN)NC1=O)C(=O)N[C@@H](CCCCN)C(=O)N[C@@H](C)C(=O)N[C@@H](CC(=O)O)C(=O)N[C@@H](CC(N)=O)C(=O)N[C@@H](CC(=O)O)C(=O)N3)NC(=O)[C@H](CCCCN)NC(=O)[C@H](CCCCN)NC(=O)CNC2=O; assay: as above; assay type: biochemical, mouse; settings: other: peptide as PKA substrate; 25 nM PKAc, 1 mM ATP, substrate 0.5-512 µM, room temperature 30-60 min, luminescence; 6 repeats; pH 7.4
# Procedure: as §1, §2
compound,measurement,setting,value
"CC(C)C[C@@H]1NC(=O)[C@H](Cc2c[nH]cn2)NC(=O)[C@@H]2CCCN2C(=O)[C@H](CC(C)C)NC(=O)[C@@H](NC(=O)[C@H](CC(=O)O)NC(=O)CN)CSSC[C@@H]2NC(=O)[C@@H]3CSSC[C@@H](C(=O)N[C@@H](CCCNC(=N)N)C(=O)O)NC(=O)[C@H](CCCNC(=N)N)NC(=O)[C@H](CCCCN)NC(=O)[C@H](CCC(=O)O)NC(=O)[C@H](C)NC(=O)[C@H](CC(N)=O)NC(=O)[C@H]([C@@H](C)O)NC(=O)CNC(=O)[C@H](CCCNC(=N)N)NC(=O)[C@H](CCCNC(=N)N)NC(=O)[C@H](CCCCN)NC(=O)[C@H](CSSC[C@H](NC(=O)[C@H](CCCNC(=N)N)NC(=O)[C@H](CCCCN)NC1=O)C(=O)N[C@@H](CCCCN)C(=O)N[C@@H](C)C(=O)N[C@@H](CC(=O)O)C(=O)N[C@@H](CC(N)=O)C(=O)N[C@@H](CC(=O)O)C(=O)N3)NC(=O)[C@H](CCCCN)NC(=O)[C@H](CCCCN)NC(=O)CNC2=O [IpCa, Imperacalcin] (H-GDCLPHLKRCKADNDCCGKKCKRRGTNAEKRCR-OH; disulfide 3-17, 10-21, 16-32)",EC50,RyR1 [1],6 ± 2 nM
"CC(C)C[C@@H]1NC(=O)[C@H](Cc2c[nH]cn2)NC(=O)[C@@H]2CCCN2C(=O)[C@H](CC(C)C)NC(=O)[C@@H](NC(=O)[C@H](CC(=O)O)NC(=O)CN)CSSC[C@@H]2NC(=O)[C@@H]3CSSC[C@@H](C(=O)N[C@@H](CCCNC(=N)N)C(=O)O)NC(=O)[C@H](CCCNC(=N)N)NC(=O)[C@H](CCCCN)NC(=O)[C@H](CCC(=O)O)NC(=O)[C@H](C)NC(=O)[C@H](CC(N)=O)NC(=O)[C@H]([C@@H](C)OP(=O)(O)O)NC(=O)CNC(=O)[C@H](CCCNC(=N)N)NC(=O)[C@H](CCCNC(=N)N)NC(=O)[C@H](CCCCN)NC(=O)[C@H](CSSC[C@H](NC(=O)[C@H](CCCNC(=N)N)NC(=O)[C@H](CCCCN)NC1=O)C(=O)N[C@@H](CCCCN)C(=O)N[C@@H](C)C(=O)N[C@@H](CC(=O)O)C(=O)N[C@@H](CC(N)=O)C(=O)N[C@@H](CC(=O)O)C(=O)N3)NC(=O)[C@H](CCCCN)NC(=O)[C@H](CCCCN)NC(=O)CNC2=O [IpCa-pT26] (H-GDCLPHLKRCKADNDCCGKKCKRRG[pT]NAEKRCR-OH; disulfide 3-17, 10-21, 16-32)",EC50,"RyR1 [1]; skeletal muscle heavy SR vesicles, mean ± SEM for n = 3 separate experiments, read-out: Median effective concentration for stimulation of [3H]ryanodine binding",42 ± 10 nM
Imperacalcin (from UniProt P59868 1-33) (peptide),[3H] ryanodine binding to skeletal muscle heavy SR vesicles against IpCa-WT concentration; median effective concentration,[2],6 nM
"IpCa R23E: IpCa with the R23E mutation, from previous mutagenesis study (GDCLPHLKRCKADNDCCGKKCKERGTNAEKRCR; ends and bridges not checked; cysteine pairing not given here; UniProt P59868 1-33, looked up, variant R23E)",Effect of mutation on potency,RyR1 [3],drastically reduce potency
"IpCa-T26E: IpCa variant containing a phosphomimetic (T26E) (GDCLPHLKRCKADNDCCGKKCKRRGENAEKRCR; disulfide (positions not given here); not fully specified; ends not checked; UniProt P59868 1-33, looked up, variant T26E)",Effect on [3H]ryanodine binding,"RyR1 [1]; skeletal muscle heavy SR vesicles, no phosphatase inhibitors",completely inert
same,Cryo-EM density for the peptide bound to RyR1,rabbit RyR1,failed to show any density for IpCa
LRRASLG [Kemptide],Vmax,[4]; room temperature,8.34 ± 0.40 µmol/min/mg
same,kcat,[4]; room temperature,4.62 ± 0.22 s⁻¹
same,Km,"[4]; substrate 0.5-512 µM, room temperature 30-60 min, luminescence",10.3 ± 2.16 µM
"mouse cAMP PKA catalytic subunit (PKAc, α isoform) (Mus musculus)",Km,[5],22.0 ± 3.40 µM
same,Vmax,[5],20.2 ± 0.93 µmol/min/mg
same,kcat,[5],11.2 ± 0.518 s⁻¹
same,kcat/Km,[5],508000 M⁻¹ s⁻¹
"opicalcin2: calcin differing from opicalcin1 only by Ala26 instead of Thr26 (GDCLPHLKRCKENNDCCSKKCKRRGANPEKRCR; ends and bridges not checked; cysteine pairing not given here; UniProt P60253 34-66, looked up)",Apparent affinity / potency,RyR1 [3],can still bind with high potency
same,Difference in potency between opicalcin1 and opicalcin2,"RyR1 [3]; opicalcin2 less potent, fig. S5, ref Xiao et al (2016)",~ 10 fold
